Structures can show the parent of a compound that is named as a salt. Where two headings read alike, the source gives them in different places. A value given as a limit tells only on which side of the number the result lay.

The target in assay [1] is mu opioid receptor (Homo sapiens, UniProt P35372). In words: Filtration binding assay: mu opioid receptor.
Assay [2] addresses kappa opioid receptor (Homo sapiens, UniProt P41145). In words: Filtration binding assay: kappa opioid receptor.
The target of assay [3] is D2 receptor (Homo sapiens, UniProt P14416). In words: Filtration binding assay, dopamine (Spiperone-I125).
Chain of D2 receptor (P14416 whole entry): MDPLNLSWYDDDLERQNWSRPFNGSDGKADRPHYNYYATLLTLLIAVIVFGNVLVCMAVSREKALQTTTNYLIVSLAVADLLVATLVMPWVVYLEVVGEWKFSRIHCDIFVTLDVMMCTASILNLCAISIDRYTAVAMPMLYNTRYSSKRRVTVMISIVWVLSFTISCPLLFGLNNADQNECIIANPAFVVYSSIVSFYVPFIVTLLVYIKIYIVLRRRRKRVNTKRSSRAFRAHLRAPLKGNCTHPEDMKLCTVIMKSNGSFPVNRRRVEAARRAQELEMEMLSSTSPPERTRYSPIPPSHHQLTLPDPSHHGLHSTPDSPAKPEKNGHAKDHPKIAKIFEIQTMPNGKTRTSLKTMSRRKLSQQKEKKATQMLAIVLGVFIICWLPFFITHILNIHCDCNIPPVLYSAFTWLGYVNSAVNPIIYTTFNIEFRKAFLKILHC
Assay [4] has as its target delta opioid receptor (Homo sapiens, UniProt P41143). In words: Filtration binding assay: delta opioid receptor.
For assay [5], the system named is rats. The conditions noted are these: rat, in vivo, ip.

Chain of kappa opioid receptor (P41145 whole entry): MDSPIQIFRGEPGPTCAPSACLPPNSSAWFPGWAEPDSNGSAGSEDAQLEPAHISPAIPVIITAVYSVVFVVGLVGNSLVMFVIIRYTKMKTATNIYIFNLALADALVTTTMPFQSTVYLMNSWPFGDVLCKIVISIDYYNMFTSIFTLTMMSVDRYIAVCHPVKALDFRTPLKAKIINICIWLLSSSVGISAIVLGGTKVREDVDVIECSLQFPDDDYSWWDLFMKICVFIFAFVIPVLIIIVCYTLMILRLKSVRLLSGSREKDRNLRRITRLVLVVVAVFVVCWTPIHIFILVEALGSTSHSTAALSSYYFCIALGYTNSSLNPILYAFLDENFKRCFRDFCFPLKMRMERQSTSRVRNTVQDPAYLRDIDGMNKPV
Chain of mu opioid receptor (P35372 whole entry): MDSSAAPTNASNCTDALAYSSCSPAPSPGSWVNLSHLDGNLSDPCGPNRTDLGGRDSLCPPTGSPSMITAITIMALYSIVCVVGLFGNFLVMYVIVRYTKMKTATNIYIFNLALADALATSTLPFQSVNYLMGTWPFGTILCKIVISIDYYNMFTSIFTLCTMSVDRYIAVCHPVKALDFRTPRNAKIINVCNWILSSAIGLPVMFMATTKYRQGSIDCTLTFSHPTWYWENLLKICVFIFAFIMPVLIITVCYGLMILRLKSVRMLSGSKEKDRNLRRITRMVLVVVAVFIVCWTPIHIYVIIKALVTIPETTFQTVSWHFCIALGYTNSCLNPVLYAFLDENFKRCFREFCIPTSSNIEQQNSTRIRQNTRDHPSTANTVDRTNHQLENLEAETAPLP
Chain of delta opioid receptor (P41143 whole entry): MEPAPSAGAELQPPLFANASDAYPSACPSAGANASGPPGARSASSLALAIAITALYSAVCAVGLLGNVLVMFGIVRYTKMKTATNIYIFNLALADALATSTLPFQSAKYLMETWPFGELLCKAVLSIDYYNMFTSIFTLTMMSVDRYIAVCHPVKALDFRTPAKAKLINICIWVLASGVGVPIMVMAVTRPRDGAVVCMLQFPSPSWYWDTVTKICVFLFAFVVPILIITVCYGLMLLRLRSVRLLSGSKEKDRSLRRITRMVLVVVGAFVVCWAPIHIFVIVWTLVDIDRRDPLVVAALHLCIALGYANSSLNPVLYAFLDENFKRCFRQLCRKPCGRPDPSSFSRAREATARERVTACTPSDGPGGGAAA

Take `CCN(C)C[C@H](O)CN1CN(c2ccc(F)cc2)C2(CCN(Cc3cccc4cccc(C)c34)CC2)C1=O` [Compound #440, 3-[3-(Ethyl-methyl-amino)-2-hydroxy-(S)-propyl]-1-(4-fluoro-phenyl)-8-(8-methyl-naphthalen-1-ylmethyl)-1,3,8-triaza-spiro[4.5]decan-4-one]: the IC50 is more than 10000 nM in assay [1]; more than 10000 nM in assay [2]; 1520 nM in assay [3] (D2 receptor, Spiperone-I125, read-out: IC50).

For `O=C1N(C[C@@H](O)CNc2ccncc2)CN(c2ccc(F)cc2)C12CCN(C1Cc3cccc4cccc1c34)CC2` (stereo partly shown) [Compound #327, 8-Acenaphthen-1-yl-1-(4-fluoro-phenyl)-3-[2-hydroxy-3-(pyridin-4-ylamino)-propyl]-1,3,8-triaza-spiro[4.5]decan-4-one], in assay [3], the IC50 worked out at 387 nM.

`COc1cccc(CNC[C@H](O)CN2CN(c3ccc(F)cc3)C3(CCN(CC4CCCCCCC4)CC3)C2=O)c1` [compound 35]: the results for the IC50 in assay [1], in assay [4] and in assay [2] were 820 nM, more than 10000 nM and 660 nM, respectively.

Consider `O=C1N(C[C@@H](O)CN2CCN(c3cccc(C(F)(F)F)c3)CC2)CN(c2ccc(F)cc2)C12CCN(CC1CCCCCCC1)CC2` [Compound #66], for which the values for the IC50 in assay [1], in assay [4] and in assay [2] were 550 nM, 5930 nM and 130 nM, respectively.

Consider `CNCCCNC[C@@H](O)CN1CN(c2ccc(F)cc2)C2(CCN(Cc3cccc4cccc(C)c34)CC2)C1=O` [Compound #656, 1-(4-Fluoro-phenyl)-3-[2-(R)-hydroxy-3-(3-methylamino-propylamino)-propyl]-8-(8-methyl-naphthalen-1-ylmethyl)-1,3,8-triaza-spiro[4.5]decan-4-one], for which the Ki is 1520 nM in assay [1], more than 5000 nM in assay [4] and 420 nM in assay [2].

Take `COCCCNC[C@H](O)CN1CN(c2ccc(F)cc2)C2(CCN(Cc3cccc4cccc(C)c34)CC2)C1=O` [compound 650]: the Ki is 740 nM in assay [1], more than 5000 nM in assay [4] and 460 nM in assay [2].

`O=C1N(C[C@@H](O)CNCCN2CCOCC2)CN(c2ccc(F)cc2)C12CCN(CC1CCCCCCC1)CC2` [Compound #1]: the IC50 in assay [1] is 620 nM; in assay [4] it was more than 10000 nM; in assay [2], 130 nM.

As to `Cc1cccc2cccc(CN3CCC4(CC3)C(=O)N(C[C@H](O)CN3CC[C@@H](NC(=O)OC(C)(C)C)C3)CN4c3ccc(F)cc3)c12` [compound 710], the Ki is 1090 nM in assay [1], more than 5000 nM in assay [4] and 360 nM in assay [2].

`COc1ccc(CNC[C@H](O)CN2CN(c3ccc(F)cc3)C3(CCN(Cc4cccc5cccc(C)c45)CC3)C2=O)cc1` [compound 398]: the IC50 in assay [1] is more than 10000 nM; in assay [4], more than 10000 nM; in assay [2] it was 250 nM.

In turn, `CCN(C)C[C@H](O)CN1CN(c2ccc(F)cc2)C2(CCN([C@H]3Cc4cccc5cccc3c45)CC2)C1=O` [compound 433] had an IC50 in assay [3] of 3520 nM.

With `O=C1N(C[C@@H](O)CNCc2ccc(F)cc2F)CN(c2ccc(F)cc2)C12CCN(CC1CCCCCCC1)CC2` [Compound #7], the IC50 worked out at 1380 nM in assay [1], 7110 nM in assay [4] and 130 nM in assay [2].

With `O=C1N(C[C@H](O)CN2C(CO)C(O)C(O)C2CO)CN(c2ccc(F)cc2)C12CCN(C1CCCCCCC1)CC2` (stereo partly shown) [compound 688], the inhibitory constant (Ki) is 110 nM in assay [1], more than 5000 nM in assay [4] and 160 nM in assay [2].

In the case of `O=C1N(C[C@@H](O)CNCCc2ccc3c(c2)OCO3)CN(c2ccc(F)cc2)C12CCN(Cc1cccc3ccccc13)CC2` [compound 254], the IC50 in assay [1] was 2830 nM; in assay [4], more than 10000 nM; in assay [2], 800 nM.

`CC1(C)[C@H]2CC=C(CN3CCC4(CC3)C(=O)N(C[C@@H](O)CN)CN4c3ccc(F)cc3)[C@@H]1C2` [compound 619]: the Ki in assay [1] is 140 nM; in assay [4] it was more than 5000 nM; in assay [2] it was 170 nM.

For the molecule `NC[C@@H](O)CN1CN(c2ccccc2)C2(CCN([C@H]3CC[C@@H]4CCCc5cccc3c54)CC2)C1=O` [Compound #640, dihydrochloride], the Ki in assay [1] is 120 nM; in assay [4] it was more than 5000 nM; in assay [2], 210 nM.

For the molecule `CCCCN(Cc1ccccc1)C[C@H](O)CN1CN(c2ccccc2)C2(CCN(C3Cc4cccc5c4[C@@H](CCC5)C3)CC2)C1=O` (stereo partly shown) [compound 54], the IC50 is 350 nM in assay [1], more than 10000 nM in assay [4] and 110 nM in assay [2].

Take `CNCCCNC[C@H](O)CN1CN(c2ccccc2)C2(CCN([C@H]3CC[C@@H]4CCCc5cccc3c54)CC2)C1=O` [compound 658]: the Ki was 170 nM in assay [1], more than 5000 nM in assay [4] and 130 nM in assay [2].

For `CC1CN(C[C@H](O)CN2CN(c3ccc(F)cc3)C3(CCN(CC4CCCCCCC4)CC3)C2=O)CC(C)O1` (stereo partly shown) [compound 75], the results for the IC50 in assay [1], in assay [4] and in assay [2] were 980 nM, more than 10000 nM and 300 nM, respectively.

Turning to `CCCCN(Cc1ccccc1)C[C@H](O)CN1CN(c2ccc(F)cc2)C2(CCN(CC3CCCCCCC3)CC2)C1=O` [Compound #64, 3-[3-(Benzyl-butyl-amino)-2-(S)-hydroxy-propyl]-8-cyclooctylmethyl-1-(4-fluoro-phenyl)-1,3,8-triaza-spiro[4.5]decan-4-one], the “% Increase Mean No. of Shocks” value in assay [5] (0.3 mg/kg) is listed as −10%; in assay [5] (1 mg/kg) it was 25%; in assay [5] (3 mg/kg), 96%; in assay [5] (10 mg/kg) it was 150%; in assay [5] (30 mg/kg), −26%.

For `CC1(C)[C@H]2CC=C(CN3CCC4(CC3)C(=O)N(C[C@@H]3CO3)CN4c3ccc(F)cc3)[C@@H]1C2` [compound 727], the results for the Ki in assay [1], in assay [4] and in assay [2] were 120 nM, more than 5000 nM and 210 nM, respectively.

Take `CC(=O)NC(CSC[C@H](O)CN1CN(c2ccc(F)cc2)C2(CCN(CC3CCCCCCC3)CC2)C1=O)C(=O)O` (stereo partly shown) [compound 100]: the IC50 in assay [1] (mean where tested more than once, read-out: Mu IC50) was 230 nM; in assay [4] (mean where tested more than once, read-out: Delta IC50), more than 10000 nM; in assay [2] (mean where tested more than once, read-out: Kappa IC50), 280 nM.

On to `O=C1N(C[C@@H](O)CNCc2ccccn2)CN(c2ccc(F)cc2)C12CCN(CC1CCCCCCC1)CC2` [compound 39], for which the IC50 in assay [1] is 8830 nM; in assay [4] it was more than 10000 nM; in assay [2], 3250 nM.

In the case of `COc1ccc(CCNC[C@H](O)CN2CN(c3ccc(F)cc3)C3(CCN(Cc4ccc5ccccc5c4)CC3)C2=O)cc1OC` [compound 261], the IC50 in assay [1] is 1560 nM; in assay [4] it was more than 10000 nM; in assay [2] it was 270 nM.

Regarding `CNCCCNCC(O)CN1CN(c2ccc(F)cc2)C2(CCN(CC3CCC4CC3C4(C)C)CC2)C1=O` (mixture of isomers) [compound 664], the Ki in assay [1] was 260 nM; in assay [4], more than 5000 nM; in assay [2], 720 nM.

Turning to `Cc1cccc2cccc(CN3CCC4(CC3)C(=O)N(CC(O)CN3CCC(N(C)C(=O)OC(C)(C)C)C3)CN4c3ccc(F)cc3)c12` (stereo not shown) [compound 721], the Ki in assay [1] was 590 nM; in assay [4], more than 5000 nM; in assay [2], 170 nM.

On to `O=C1N(C[C@@H](O)CNCc2cccc(Br)c2)CN(c2ccc(F)cc2)C12CCN(CC1CCCCCCC1)CC2` [compound 20], for which the IC50 in assay [1] was 1280 nM; in assay [4], more than 10000 nM; in assay [2], 440 nM.

As for `O=C1N(C[C@H](O)CNCc2cc(C(F)(F)F)cc(C(F)(F)F)c2)CN(c2ccc(F)cc2)C12CCN(CC1CCCCCCC1)CC2` [Compound #3], the IC50 was 4050 nM in assay [1], 9160 nM in assay [4] and 440 nM in assay [2].

As for `NC[C@@H](O)CN1CN(c2ccc(F)cc2)C2(CCN(CC3CCCCCCC3)CC2)C1=O` [Compound #620, 3-(3-Amino-2-(R)-hydroxy-propyl)-8-cyclooctylmethyl-1-(4-fluoro-phenyl)-1,3,8-triaza-spiro[4.5]decan-4-one], the Ki in assay [1] is 280 nM; in assay [4], more than 5000 nM; in assay [2], 190 nM.

Source of the values: patent US7582649B2, “Hydroxy alkyl substituted 1,3,8-triazaspiro[4.5]decan-4-one derivatives useful for the treatment of ORL-1 receptor mediated disorders” (Janssen Pharmaceutica, NV, priority 2002, dated 2009).
